Test: Stability of cannabinoid compounds and Vitamin E components in Beverage 1 (AB White) by LCMSMS
Assay type: physicochemical

## CC(=O)Oc1c(C)c(C)c2c(c1C)CCC(C)(CCC[C@H](C)CCC[C@H](C)CCCC(C)C)O2 (stereo partly drawn) [α-Tocopheryl acetate]
Stored at 8° C., 29 days
  Stability of Vitamin Es in AB White: 11.40 µg/mL
Stored at 8° C., 30 days
  Stability of Vitamin Es in AB White: 12.07 µg/mL
Stored at 8° C., 60 days
  Stability of Vitamin Es in AB White: 12.05 µg/mL
Stored at 8° C., 90 days
  Stability of Vitamin Es in AB White: 11.13 µg/mL
Stored at 8° C., 120 days
  Stability of Vitamin Es in AB White: 11.80 µg/mL
Stored at 8° C., 150 days
  Stability of Vitamin Es in AB White: 11.89 µg/mL
Stored at 8° C., 180 days
  Stability of Vitamin Es in AB White: 11.48 µg/mL
Stored at 8° C., 210 days
  Stability of Vitamin Es in AB White: 11.21 µg/mL
Stored at 8° C., 240 days
  Stability of Vitamin Es in AB White: 11.06 µg/mL
Stored at 8° C., 270 days
  Stability of Vitamin Es in AB White: 11.21 µg/mL
Stored at 8° C., 300 days
  Stability of Vitamin Es in AB White: 11.37 µg/mL
Stored at 8° C., 330 days
  Stability of Vitamin Es in AB White: 11.28 µg/mL
Stored at 8° C., 360 days
  Stability of Vitamin Es in AB White: 11.12 µg/mL
Stored at 8° C., 390 days
  Stability of Vitamin Es in AB White: 11.00 µg/mL
Stored at 8° C., 420 days
  Stability of Vitamin Es in AB White: 11.06 µg/mL
Stored at 8° C., 450 days
  Stability of Vitamin Es in AB White: 10.89 µg/mL
Stored at 8° C., 480 days
  Stability of Vitamin Es in AB White: 10.76 µg/mL
Stored at 8° C., 510 days
  Stability of Vitamin Es in AB White: 10.76 µg/mL
Stored at 8° C., 540 days
  Stability of Vitamin Es in AB White: 10.49 µg/mL
Stored at 8° C., 570 days
  Stability of Vitamin Es in AB White: 10.42 µg/mL
Stored at 21-25° C., 0 days
  Stability of Vitamin Es in AB White: 12.3 µg/mL
Stored at 21-25° C., 1 days
  Stability of Vitamin Es in AB White: 12.2 µg/mL
Stored at 21-25° C., 2 days
  Stability of Vitamin Es in AB White: 12.3 µg/mL
Stored at 21-25° C., 3 days
  Stability of Vitamin Es in AB White: 11.8 µg/mL
Stored at 21-25° C., 5 days
  Stability of Vitamin Es in AB White: 12.0 µg/mL
Stored at 21-25° C., 8 days
  Stability of Vitamin Es in AB White: 12.4 µg/mL
Stored at 21-25° C., 9 days
  Stability of Vitamin Es in AB White: 12.2 µg/mL
Stored at 21-25° C., 10 days
  Stability of Vitamin Es in AB White: 11.8 µg/mL
Stored at 21-25° C., 11 days
  Stability of Vitamin Es in AB White: 11.7 µg/mL
Stored at 21-25° C., 12 days
  Stability of Vitamin Es in AB White: 11.6 µg/mL
Stored at 21-25° C., 15 days
  Stability of Vitamin Es in AB White: 11.4 µg/mL
Stored at 21-25° C., 16 days
  Stability of Vitamin Es in AB White: 12.3 µg/mL
Stored at 21-25° C., 17 days
  Stability of Vitamin Es in AB White: 11.2 µg/mL
Stored at 21-25° C., 18 days
  Stability of Vitamin Es in AB White: 11.9 µg/mL
Stored at 21-25° C., 19 days
  Stability of Vitamin Es in AB White: 11.4 µg/mL
Stored at 21-25° C., 22 days
  Stability of Vitamin Es in AB White: 11.3 µg/mL
Stored at 21-25° C., 23 days
  Stability of Vitamin Es in AB White: 11.9 µg/mL
Stored at 21-25° C., 24 days
  Stability of Vitamin Es in AB White: 11.8 µg/mL
Stored at 21-25° C., 25 days
  Stability of Vitamin Es in AB White: 11.3 µg/mL
Stored at 21-25° C., 26 days
  Stability of Vitamin Es in AB White: 11.6 µg/mL
Stored at 21-25° C., 29 days
  Stability of Vitamin Es in AB White: 12.1 µg/mL
Stored at 21-25° C., 30 days
  Stability of Vitamin Es in AB White: 12.1 µg/mL
Stored at 21-25° C., 60 days
  Stability of Vitamin Es in AB White: 12.1 µg/mL
Stored at 21-25° C., 90 days
  Stability of Vitamin Es in AB White: 12.0 µg/mL
Stored at 21-25° C., 120 days
  Stability of Vitamin Es in AB White: 11.4 µg/mL
Stored at 21-25° C., 150 days
  Stability of Vitamin Es in AB White: 11.9 µg/mL
Stored at 21-25° C., 180 days
  Stability of Vitamin Es in AB White: 11.2 µg/mL
Stored at 21-25° C., 210 days
  Stability of Vitamin Es in AB White: 11.1 µg/mL
Stored at 21-25° C., 240 days
  Stability of Vitamin Es in AB White: 10.8 µg/mL
Stored at 21-25° C., 270 days
  Stability of Vitamin Es in AB White: 11.0 µg/mL
Stored at 21-25° C., 300 days
  Stability of Vitamin Es in AB White: 11.2 µg/mL
Stored at 21-25° C., 330 days
  Stability of Vitamin Es in AB White: 11.3 µg/mL
Stored at 21-25° C., 360 days
  Stability of Vitamin Es in AB White: 10.7 µg/mL
Stored at 21-25° C., 390 days
  Stability of Vitamin Es in AB White: 10.8 µg/mL
Stored at 21-25° C., 420 days
  Stability of Vitamin Es in AB White: 10.9 µg/mL
Stored at 21-25° C., 450 days
  Stability of Vitamin Es in AB White: 10.6 µg/mL
Stored at 21-25° C., 480 days
  Stability of Vitamin Es in AB White: 10.3 µg/mL
Stored at 21-25° C., 510 days
  Stability of Vitamin Es in AB White: 10.4 µg/mL
Stored at 21-25° C., 540 days
  Stability of Vitamin Es in AB White: 10.4 µg/mL
Stored at 21-25° C., 570 days
  Stability of Vitamin Es in AB White: 10.2 µg/mL
